{"source": "patent US20100063065A1", "about": "(Inpharmatica Limited, priority 2005, published 2010)", "molecular_target": "T1, PPARδ (Homo sapiens, UniProt Q03181)", "T1 construct": "fused to amino acids 147-441 of PPARδ downstream of CMV promoter; expressed in transfected cells; host or cells: HEK293 cells, transiently transfected with pFACMV-PPARδ using Fugene", "T1 sequence (Q03181 147-441)": "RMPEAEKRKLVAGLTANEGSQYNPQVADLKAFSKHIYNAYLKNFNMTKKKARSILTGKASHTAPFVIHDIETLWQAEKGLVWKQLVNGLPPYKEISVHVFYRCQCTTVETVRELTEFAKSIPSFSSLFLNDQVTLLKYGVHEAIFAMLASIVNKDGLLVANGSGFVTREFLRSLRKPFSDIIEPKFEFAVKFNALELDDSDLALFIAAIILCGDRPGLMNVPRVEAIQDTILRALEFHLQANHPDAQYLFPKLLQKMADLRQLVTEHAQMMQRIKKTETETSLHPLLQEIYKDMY", "test": "Transactivation assay (PPARδ GAL4 assay) in transiently transfected HEK293 cells", "format": "cell-based", "settings": "luciferase reporter", "summary_of_the_method": "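HEK293 cells transiently co-transfected with GAL4 DBD (aa 1-147)–PPARδ (aa 147-441) fusion and 5×GAL4-luciferase reporter, then exposed 24 h to compound (final 0-30 μM) in OptiMEM at 37° C. Luminescence read; activity as percent of GW501516 control, EC50 from sigmoidal dose-response fit.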", "data": [{"smiles": "COc1ccc(C(=O)c2ccsc2NC(=O)CSCC(=O)O)cc1", "note": "[Example 68, {[3-(4-Methoxy-benzoyl)-thiophen-2-ylcarbamoyl]-methylsulfanyl}-acetic acid]", "values": [{"measurement": "EC50", "setting": "Table 1", "result": "1 to 30", "unit": "µM"}]}, {"smiles": "CCc1cc(C(=O)c2ccc3ccccc3c2)c(NC(=O)CSCC(=O)O)s1", "note": "[Example 47, {[5-Ethyl-3-(naphthalene-2-carbonyl)-thiophen-2-ylcarbamoyl]-methylsulfanyl}-acetic acid]", "values": [{"measurement": "EC50", "setting": "Table 1", "result": "0.1 to 1", "unit": "µM"}]}, {"smiles": "CCc1cc(C(=O)c2ccc(OC(F)(F)F)cc2)c(NC(=O)C(C)SCC(=O)O)s1", "note": "(stereo not shown) [Example 106, {1-[5-Ethyl-3-(4-trifluoromethoxy-benzoyl)-thiophen-2-ylcarbamoyl]-ethylsulfanyl}-acetic acid]", "values": [{"measurement": "EC50", "setting": "Table 2", "result": "< 0.1", "unit": "µM"}]}, {"smiles": "CCc1cc(C(=O)c2ccc(OC)cc2)c(NC(=O)C(C)SCC(=O)O)s1", "note": "(stereo not shown) [Example 72, {1-[5-Ethyl-3-(4-methoxy-benzoyl)-thiophen-2-ylcarbamoyl]-ethylsulfanyl}-acetic acid]", "values": [{"measurement": "EC50", "setting": "Table 1", "result": "0.1 to 1", "unit": "µM"}]}, {"smiles": "CCc1cc(C(=O)c2ccc(Oc3ccccc3)cc2)c(NC(=O)CSCC(=O)O)s1", "note": "[Example 12, {[5-Ethyl-3-(4-phenoxy-benzoyl)-thiophen-2-ylcarbamoyl]-methylsulfanyl}-acetic acid]", "values": [{"measurement": "EC50", "setting": "Table 1", "result": "0.1 to 1", "unit": "µM"}]}, {"smiles": "CCc1cc(C(=O)c2ccc(OC(F)(F)F)c(F)c2)c(NC(=O)CSCC(=O)O)s1", "note": "[Example 131, {[5-Ethyl-3-(3-fluoro-4-trifluoromethoxy-benzoyl)-thiophen-2-ylcarbamoyl]-methylsulfanyl}-acetic acid]", "values": [{"measurement": "EC50", "setting": "Table 2", "result": "< 0.1", "unit": "µM"}]}, {"smiles": "CCc1cc(C(=O)c2ccc(OC(F)(F)F)cc2)c(NC(=O)CN2CCCC(C(=O)O)C2)s1", "note": "(stereo not shown) [Example 159, 1-{[5-Ethyl-3-(4-trifluoromethoxy-benzoyl)-thiophen-2-ylcarbamoyl]-methyl}-piperidine-3-carboxylic acid]", "values": [{"measurement": "EC50", "setting": "Table 2", "result": "0.1 to 1", "unit": "µM"}]}, {"smiles": "CCc1cc(C(=O)c2ccc(OC(F)(F)F)cc2)c(NC(=O)CNCC(=O)O)s1", "note": "[Example 81, ({[5-Ethyl-3-(4-trifluoromethoxy-benzoyl)-thiophen-2-ylcarbamoyl]-methyl}-amino)-acetic acid]", "values": [{"measurement": "EC50", "setting": "Table 1", "result": "0.1 to 1", "unit": "µM"}]}, {"smiles": "CCc1cc(C(=O)c2cc3cc(OC(F)(F)F)ccc3n2C)c(NC(=O)CSCC(=O)O)s1", "note": "[Example 150, {[5-Ethyl-3-(1-methyl-5-trifluoromethoxy-1H-indole-2-carbonyl)-thiophen-2-ylcarbamoyl]-methylsulfanyl}-acetic acid]", "values": [{"measurement": "EC50", "setting": "Table 2", "result": "< 0.1", "unit": "µM"}]}, {"smiles": "CCc1cc(C(=O)c2ccc(OC(F)(F)F)cc2)c(NC(=O)CN2CC(C)CC2C(=O)O)s1", "note": "(mixture of isomers) [Example 180, 1-{[5-Ethyl-3-(4-trifluoromethoxy-benzoyl)-thiophen-2-ylcarbamoyl]-methyl}-4-methyl-pyrrolidine-2-carboxylic acid]", "values": [{"measurement": "EC50", "setting": "Table 2", "result": "0.1 to 1", "unit": "µM"}]}, {"smiles": "CCc1cc(C(=O)c2ccc(OC(C)C)cc2)c(NC(=O)CSCC(=O)O)s1", "note": "[Example 33, {[5-Ethyl-3-(4-isopropoxy-benzoyl)-thiophen-2-ylcarbamoyl]-methylsulfanyl}-acetic acid]", "values": [{"measurement": "EC50", "setting": "Table 1", "result": "0.1 to 1", "unit": "µM"}]}, {"smiles": "CCc1cc(C(=O)c2cc3cc(OC(F)(F)F)ccc3n2C)c(NC(=O)CCC(C)(C)C(=O)O)s1", "note": "[Example 152, 4-[5-Ethyl-3-(1-methyl-5-trifluoromethoxy-H-indole-2-carbonyl)-thiophen-2-ylcarbamoyl]-2,2-dimethyl-butyric acid]", "values": [{"measurement": "EC50", "setting": "Table 2", "result": "< 0.1", "unit": "µM"}]}, {"smiles": "CCc1cc(C(=O)c2ccc(OC(F)(F)F)c(Cl)c2)c(NC(=O)CNC(C)(C)C(=O)O)s1", "note": "[Example 171, 2-({[3-(3-Chloro-4-trifluoromethoxy-benzoyl)-5-ethyl-thiophen-2-ylcarbamoyl]-methyl}-amino)-2-methyl-propionic acid]", "values": [{"measurement": "EC50", "setting": "Table 2", "result": "< 0.1", "unit": "µM"}]}, {"smiles": "CCc1cc(C(=O)c2ccc(OC(F)(F)F)cc2)c(NC(=O)CSC(C)(C)C(=O)O)s1", "note": "[Example 2, 2-{[5-Ethyl-3-(4-trifluoromethoxy-benzoyl)-thiophen-2-ylcarbamoyl]-methylsulfanyl}-2-methyl-propionic acid]", "values": [{"measurement": "EC50", "setting": "Table 1", "result": "< 0.1", "unit": "µM"}]}, {"smiles": "CCc1cc(C(=O)c2ccc(OC)cc2)c(NC(=O)CSc2ccc(OCC(=O)O)c(C)c2)s1", "note": "[Example 91, (4-{[5-Ethyl-3-(4-methoxy-benzoyl)-thiophen-2-ylcarbamoyl]-methylsulfanyl}-2-methyl-phenoxy)-acetic acid]", "values": [{"measurement": "EC50", "setting": "Table 1", "result": "1 to 30", "unit": "µM"}]}, {"smiles": "CCc1cc(C(=O)c2ccc(OC(F)(F)F)cc2)c(NC(=O)c2ccc(SCC(=O)O)cc2)s1", "note": "[Example 103, {4-[5-Ethyl-3-(4-trifluoromethoxy-benzoyl)-thiophen-2-ylcarbamoyl]-phenylsulfanyl}-acetic acid]", "values": [{"measurement": "EC50", "setting": "Table 1", "result": "0.1 to 1", "unit": "µM"}]}, {"smiles": "CCc1cc(C(=O)c2ccc(OC(F)(F)F)cc2)c(NC(=O)C(c2ccccc2)N2CCC[C@@H]2C(=O)O)s1", "note": "(stereo partly drawn) [Example 124, (R)-1-{[5-Ethyl-3-(4-trifluoromethoxy-benzoyl)-thiophen-2-ylcarbamoyl]-phenyl-methyl}-pyrrolidine-2-carboxylic acid]", "values": [{"measurement": "EC50", "setting": "Table 2", "result": "0.1 to 1", "unit": "µM"}]}, {"smiles": "CCc1cc(C(=O)c2ccc(OC(F)(F)F)cc2)c(NC(=O)CN2[C@@H](C(=O)O)CC[C@@H]2C)s1", "note": "(relative stereo) [Example 179, (2R*,5S*)-1-{[5-Ethyl-3-(4-trifluoromethoxy-benzoyl)-thiophen-2-ylcarbamoyl]-methyl}-5-methyl-pyrrolidine-2-carboxylic acid]", "values": [{"measurement": "EC50", "setting": "Table 2", "result": "< 0.1", "unit": "µM"}]}, {"smiles": "CCc1cc(C(=O)c2ccc(Oc3ccccc3)nc2)c(NC(=O)CSCC(=O)O)s1", "note": "[Example 60, {[5-Ethyl-3-(6-phenoxy-pyridine-3-carbonyl)-thiophen-2-ylcarbamoyl]-methylsulfanyl}-acetic acid]", "values": [{"measurement": "EC50", "setting": "Table 1", "result": "1 to 30", "unit": "µM"}]}, {"smiles": "CCc1cc(C(=O)c2ccc(Cl)cc2)c(NC(=O)c2ccc(OCC(=O)O)cc2)s1", "note": "[Example 97, {4-[3-(4-Chloro-benzoyl)-5-ethyl-thiophen-2-ylcarbamoyl]-phenoxy}-acetic acid]", "values": [{"measurement": "EC50", "setting": "Table 1", "result": "0.1 to 1", "unit": "µM"}]}, {"smiles": "CCc1cc(C(=O)c2ccc(OC(F)(F)F)cc2)c(NC(=O)C2CCCN(CC(=O)O)C2)s1", "note": "(stereo not shown) [Example 176, {3-[5-Ethyl-3-(4-trifluoromethoxy-benzoyl)-thiophen-2-ylcarbamoyl]-piperidin-1-yl}-acetic acid]", "values": [{"measurement": "EC50", "setting": "Table 2", "result": "1 to 30", "unit": "µM"}]}, {"smiles": "CCc1cc(C(=O)c2ccc(OC)cc2)c(NC(=O)CSC(C)(C)C(=O)O)s1", "note": "[Example 5, 2-{[5-Ethyl-3-(4-methoxy-benzoyl)-thiophen-2-ylcarbamoyl]-methylsulfanyl}-2-methyl-propionic acid]", "values": [{"measurement": "EC50", "setting": "Table 1", "result": "0.1 to 1", "unit": "µM"}]}, {"smiles": "CCc1cc(C(=O)c2ccc(Oc3ccccc3)cc2)c(NC(=O)CC(C)(C)CC(=O)O)s1", "note": "[Example 13, 4-[5-Ethyl-3-(4-phenoxy-benzoyl)-thiophen-2-ylcarbamoyl]-3,3-dimethyl-butyric acid]", "values": [{"measurement": "EC50", "setting": "Table 1", "result": "1 to 30", "unit": "µM"}]}, {"smiles": "CCc1cc(C(=O)c2ccc(F)cc2)c(NC(=O)CSCC(=O)O)s1", "note": "[Example 18, {[5-Ethyl-3-(4-fluoro-benzoyl)-thiophen-2-ylcarbamoyl]-methylsulfanyl}-acetic acid]", "values": [{"measurement": "EC50", "setting": "Table 1", "result": "1 to 30", "unit": "µM"}]}, {"smiles": "CCc1cc(C(=O)c2ccc(OC)cc2)c(NC(=O)CSC(C)C(=O)O)s1", "note": "(stereo not shown) [Example 111, 2-{[5-Ethyl-3-(4-methoxy-benzoyl)-thiophen-2-ylcarbamoyl]-methylsulfanyl}-propionic acid]", "values": [{"measurement": "EC50", "setting": "Table 2", "result": "0.1 to 1", "unit": "µM"}]}, {"smiles": "CCc1cc(C(=O)c2ccc(OC)cc2)c(NC(=O)CSc2ccc(OC(C)(C)C(=O)O)cc2)s1", "note": "[Example 92, 2-(4-{[5-Ethyl-3-(4-methoxy-benzoyl)-thiophen-2-ylcarbamoyl]-methylsulfanyl}-phenoxy)-2-methyl-propionic acid]", "values": [{"measurement": "EC50", "setting": "Table 1", "result": "0.1 to 1", "unit": "µM"}]}, {"smiles": "CCc1cc(C(=O)c2ccc(OC(F)(F)F)cc2)c(NC(=O)CN(C)[C@@H](C)C(=O)O)s1", "note": "[Example 198, (S)-2-({[5-Ethyl-3-(4-trifluoromethoxy-benzoyl)-thiophen-2-ylcarbamoyl]-methyl}-methyl-amino)-propionic acid]", "values": [{"measurement": "EC50", "setting": "Table 2", "result": "< 0.1", "unit": "µM"}]}, {"smiles": "CCc1cc(C(=O)c2ccc(OC(F)(F)F)cc2)c(NC(=O)C(CC)SC(C)C(=O)O)s1", "note": "(stereo not shown) [Example 110, 2-{1-[5-Ethyl-3-(4-trifluoromethoxy-benzoyl)-thiophen-2-ylcarbamoyl]-propylsulfanyl}-propionic acid]", "values": [{"measurement": "EC50", "setting": "Table 2", "result": "< 0.1", "unit": "µM"}]}, {"smiles": "CCc1cc(C(=O)c2nc3ccc(Cl)cc3s2)c(NC(=O)CSCC(=O)O)s1", "note": "[Example 154, {[3-(6-Chloro-benzothiazole-2-carbonyl)-5-ethyl-thiophen-2-ylcarbamoyl]-methylsulfanyl}-acetic acid]", "values": [{"measurement": "EC50", "setting": "Table 2", "result": "0.1 to 1", "unit": "µM"}]}, {"smiles": "COc1ccc(C(=O)c2cc(C)sc2NC(=O)CSCC(=O)O)cc1", "note": "[Example 61, {[3-(4-Methoxy-benzoyl)-5-methyl-thiophen-2-ylcarbamoyl]-methylsulfanyl}-acetic acid]", "values": [{"measurement": "EC50", "setting": "Table 1", "result": "1 to 30", "unit": "µM"}]}, {"smiles": "CCc1cc(C(=O)c2ccc(F)cc2)c(NC(=O)CC(C)(C)CC(=O)O)s1", "note": "[Example 20, 4-[5-Ethyl-3-(4-fluoro-benzoyl)-thiophen-2-ylcarbamoyl]-3,3-dimethyl-butyric acid]", "values": [{"measurement": "EC50", "setting": "Table 1", "result": "1 to 30", "unit": "µM"}]}, {"smiles": "CCc1cc(C(=O)c2ccc(OC)cc2)c(NC(=O)CCCSCC(=O)O)s1", "note": "[Example 71, {3-[5-Ethyl-3-(4-methoxy-benzoyl)-thiophen-2-ylcarbamoyl]-propylsulfanyl}-acetic acid]", "values": [{"measurement": "EC50", "setting": "Table 1", "result": "0.1 to 1", "unit": "µM"}]}, {"smiles": "CCc1cc(C(=O)c2cccc(Cl)c2)c(NC(=O)CSCC(=O)O)s1", "note": "[Example 27, {[3-(3-Chloro-benzoyl)-5-ethyl-thiophen-2-ylcarbamoyl]-methylsulfanyl}-acetic acid]", "values": [{"measurement": "EC50", "setting": "Table 1", "result": "0.1 to 1", "unit": "µM"}]}, {"smiles": "CCc1cc(C(=O)c2ccc(OCC(F)(F)F)cc2)c(NC(=O)CSCC(=O)O)s1", "note": "[Example 175, ({5-Ethyl-3-[4-(2,2,2-trifluoro-ethoxy)-benzoyl]-thiophen-2-ylcarbamoyl}-methylsulfanyl)-acetic acid]", "values": [{"measurement": "EC50", "setting": "Table 2", "result": "0.1 to 1", "unit": "µM"}]}]}
